Tested on: interferon-stimulated genes (ISGs)
Experiment: Microarray analysis of iCell Hepatocytes treated with the compound of example 1
Format: cell-based, Human
Source text: iCell Hepatocytes treated with the compound of example 1 results in the up and down-regulation of a host of genes; including a kinetic effect on interferon-stimulated gene (ISGs) expression. See FIGS. 15-I and 15-II, 16-I and 16-II and 18 and Table 1.

What does the source list for `O=C(NCc1cccc(F)c1)c1cccc2nc(-c3c(NC[C@@H](O)c4ccccc4)cc[nH]c3=O)[nH]c12` [Example 1, 2-[4-((S)-2-hydroxy-2-phenyl-ethylamino)-2-oxo-1,2-dihydro-pyridin-3-yl]-3H-benzoimidazole-4-carboxylic acid 3-fluoro-benzylamide]?
IFITM2 Raw Est Fold Change (24 HOUR): −1.90; IFITM3 Raw Est Fold Change (24 HOUR): −1.36; IFNGR1 Raw Est Fold Change (24 HOUR): −2.46; IGHM Raw Est Fold Change (24 HOUR): −2.00; IL6 Raw Est Fold Change (24 HOUR): −4.57; IL6ST Raw Est Fold Change (24 HOUR): −1.25; IL8 Raw Est Fold Change (24 HOUR): −4.32; IL28RA Raw Est Fold Change (24 HOUR): 1.28; IMPA2 Raw Est Fold Change (24 HOUR): −1.80; IQGAP1 Raw Est Fold Change (24 HOUR): −1.70; IRF3 Raw Est Fold Change (24 HOUR): 1.26; IRF7 Raw Est Fold Change (24 HOUR): −3.86; ISG20 Raw Est Fold Change (24 HOUR): −1.70; ISGF3G Raw Est Fold Change (24 HOUR): −1.37; ITGA2 Raw Est Fold Change (24 HOUR): −1.94; JAK1 Raw Est Fold Change (24 HOUR): −1.17; JAK2 Raw Est Fold Change (24 HOUR): −1.29; JUNB Raw Est Fold Change (24 HOUR): −4.94; KDELR2 Raw Est Fold Change (24 HOUR): −1.19; KIAA0040 Raw Est Fold Change (24 HOUR): −5.04; KPNB1 Raw Est Fold Change (24 HOUR): −1.12; LEPR Raw Est Fold Change (24 HOUR): 2.89; LIFR Raw Est Fold Change (24 HOUR): 1.33; LRG1 Raw Est Fold Change (24 HOUR): −2.10; LRP4 Raw Est Fold Change (24 HOUR): −2.17; MAFB Raw Est Fold Change (24 HOUR): 2.60; MAFF Raw Est Fold Change (24 HOUR): −2.09; MAP3K8 Raw Est Fold Change (24 HOUR): −3.81; MCL1 Raw Est Fold Change (24 HOUR): −1.16; MLKL Raw Est Fold Change (24 HOUR): −1.78; MSR1 Raw Est Fold Change (24 HOUR): −2.06; MT1M Raw Est Fold Change (24 HOUR): −3.35; MT1X Raw Est Fold Change (24 HOUR): −6.73; MTHFD2L Raw Est Fold Change (24 HOUR): −2.20; MTMR1 Raw Est Fold Change (24 HOUR): −1.14; MYD88 Raw Est Fold Change (24 HOUR): 1.15; MYT1 Raw Est Fold Change (24 HOUR): −3.59; N4BP1 Raw Est Fold Change (24 HOUR): −1.40; NFE2 Raw Est Fold Change (24 HOUR): −8.28; NFKBIA Raw Est Fold Change (24 HOUR): −1.38; NPAS2 Raw Est Fold Change (24 HOUR): −2.77; NUB1 Raw Est Fold Change (24 HOUR): −1.47; PADI2 Raw Est Fold Change (24 HOUR): 2.66; PCGF2 Raw Est Fold Change (24 HOUR): 1.44; PCMT1 Raw Est Fold Change (24 HOUR): −1.10; PCTK2 Raw Est Fold Change (24 HOUR): −1.85; PCTK3 Raw Est Fold Change (24 HOUR): 1.59; PDGFA Raw Est Fold Change (24 HOUR): 1.23; PDGFRL Raw Est Fold Change (24 HOUR): −1.86; PDK1 Raw Est Fold Change (24 HOUR): −1.48; PEX26 Raw Est Fold Change (24 HOUR): 1.29; PIM3 Raw Est Fold Change (24 HOUR): −2.56; PLOD2 Raw Est Fold Change (24 HOUR): −1.22; PLSCR1 Raw Est Fold Change (24 HOUR): −3.34; PNRC1 Raw Est Fold Change (24 HOUR): −2.42; PPIC Raw Est Fold Change (24 HOUR): −1.23; PPP1R3D Raw Est Fold Change (24 HOUR): −1.49; PSCD1 Raw Est Fold Change (24 HOUR): −1.21; PSMA2 Raw Est Fold Change (24 HOUR): 1.27; PSMB9 Raw Est Fold Change (24 HOUR): −1.86; PTEN Raw Est Fold Change (24 HOUR): 1.23; RAB27A Raw Est Fold Change (24 HOUR): −2.33; RANBP1 Raw Est Fold Change (24 HOUR): 1.13; RBCK1 Raw Est Fold Change (24 HOUR): 1.34; RBL1 Raw Est Fold Change (24 HOUR): −4.92; RBMS1 Raw Est Fold Change (24 HOUR): −1.38; RHOH Raw Est Fold Change (24 HOUR): 5.26; RXRA Raw Est Fold Change (24 HOUR): 1.46; SAT Raw Est Fold Change (24 HOUR): −1.57; SDC2 Raw Est Fold Change (24 HOUR): 1.96; SERPINB9 Raw Est Fold Change (24 HOUR): −1.86; SFPQ Raw Est Fold Change (24 HOUR): −1.39; SFTPC Raw Est Fold Change (24 HOUR): −1.66; SLC15A2 Raw Est Fold Change (24 HOUR): −1.58; SLC25A28 Raw Est Fold Change (24 HOUR): −1.54; SLC25A30 Raw Est Fold Change (24 HOUR): 1.53; SMAD3 Raw Est Fold Change (24 HOUR): −1.19; SOAT2 Raw Est Fold Change (24 HOUR): 4.03; SOCS1 Raw Est Fold Change (24 HOUR): −9.88; SOCS3 Raw Est Fold Change (24 HOUR): −3.51; SPTLC2 Raw Est Fold Change (24 HOUR): −10.08; SQLE Raw Est Fold Change (24 HOUR): −1.98; SQRDL Raw Est Fold Change (24 HOUR): −1.45; SSBP3 Raw Est Fold Change (24 HOUR): 1.35; STAT1 Raw Est Fold Change (24 HOUR): −2.14; STEAP4 Raw Est Fold Change (24 HOUR): −65.16; TAP1 Raw Est Fold Change (24 HOUR): −1.60; TAP2 Raw Est Fold Change (24 HOUR): −1.54; TBX3 Raw Est Fold Change (24 HOUR): 1.42; TCF7L2 Raw Est Fold Change (24 HOUR): −1.29; TEAD4 Raw Est Fold Change (24 HOUR): −2.33; TFPI Raw Est Fold Change (24 HOUR): −1.38; THBD Raw Est Fold Change (24 HOUR): −9.02; THBS1 Raw Est Fold Change (24 HOUR): −1.44; TMEM2 Raw Est Fold Change (24 HOUR): −1.35; TMEM49 Raw Est Fold Change (24 HOUR): −2.07; TMEM67 Raw Est Fold Change (24 HOUR): −4.34; TNFSF13B Raw Est Fold Change (24 HOUR): 1.36; TRIM14 Raw Est Fold Change (24 HOUR): 1.36; TRIM26 Raw Est Fold Change (24 HOUR): 1.56; TXNIP Raw Est Fold Change (24 HOUR): −1.37; UBE2S Raw Est Fold Change (24 HOUR): −1.40; USP12 Raw Est Fold Change (24 HOUR): −1.96; USP25 Raw Est Fold Change (24 HOUR): −1.22; VAT1 Raw Est Fold Change (24 HOUR): 1.21; YWHAE Raw Est Fold Change (24 HOUR): −1.11; ZFYVE26 Raw Est Fold Change (24 HOUR): 1.31; ZNF24 Raw Est Fold Change (24 HOUR): −1.16; ZNF295 Raw Est Fold Change (24 HOUR): −1.84; ABHD5 Raw Est Fold Change (DAY 7): −2.05; ACSL1 Raw Est Fold Change (DAY 7): 1.78; ADM Raw Est Fold Change (DAY 7): −3.85; AGXT Raw Est Fold Change (DAY 7): 2.54; AHR Raw Est Fold Change (DAY 7): −2.08; AKR1B1 Raw Est Fold Change (DAY 7): −3.52; AKT3 Raw Est Fold Change (DAY 7): −5.29; ALCAM Raw Est Fold Change (DAY 7): −1.46; ALDH1A1 Raw Est Fold Change (DAY 7): 1.54; AMPH Raw Est Fold Change (DAY 7): −21.01; APOL6 Raw Est Fold Change (DAY 7): 1.36; ARHGDIB Raw Est Fold Change (DAY 7): −3.40

— patent publication US9181218B2, “Compounds for improved stem cell differentiation into hepatocytes” (Hoffmann-La Roche Inc., priority 2013, dated 2015)
